Assay results from patent publication US20120283096A1, “AGENT FOR IMPROVING PLANT GROWTH, SEEDS, AND METHOD FOR IMPROVING PLANT GROWTH” (Incorporated Administrative Agency National Agricu lture …, priority 2010, published 2012).

Columns and labels:
[1] = tested on: paddy seeds; experiment: Possibility of growth of paddy seeds in tank farming without soil (Example 3); conditions: in vivo
Method: (§1) The decay-inhibiting effect of molybdenum-containing substances in tank farming without soil was examined.
(§2) The possibility of growth and the inhibition of decay were determined in the same manner as above.

[2] = tested on: decay of paddy seeds; experiment: Decay-inhibiting effect in tank farming without soil (Example 3); conditions: seeds covered with substance, soaked two weeks in water at 30° C.
Method: as §1, §2

[3] = tested on: paddy rice; experiment: Seedling establishment of coated paddy seeds in submerged soil containers (Examples 4-1 to 4-4b, FIGS. 11, 14-19c); type: in vivo
Method: The germinated paddy seeds were soaked for one minute in a tenfold diluted solution of a commercially available laundry starch (manufactured by Rocket Soap Co., Ltd.; My Laundry Starch) containing approximately a little less than 10% by weight of polyvinyl alcohol, centrifuged at 1000 rpm for removal of the extra solution, and, immediately after that, lightly covered with different amounts of ammonium molybdophosphate, whereby seeds with different amounts of ammonium molybdophosphate were prepared.
(§3) It should also be noted that in each of FIGS. 14 through 15b, the horizontal axis represents the number of moles (mmol) of molybdenum or tungsten that adhered per gram of dry seed. In each of FIGS. 14 through 15b, the dots correspond to the numbers of moles of 0, 0.02, 0.05, 0.1, 0.2, 0.5, 1, and 2 mmol, starting from the left.
as §3, with “should” for “should also”, “16” for “14”, “18,” for “15b,”, “molybdenum” for “molybdenum or tungsten”
It should be noted that in FIG. 19a, the horizontal axis represents the number of moles (mmol) of molybdenum that adhered per gram of dry seed. In FIG. 19a, the dots correspond to the numbers of moles of 0, 0.02, 0.05, 0.1, 0.2, 0.5, 1, and 2 mmol, starting from the left.
The resulting seeds were allowed to spend time in a sufficiently wet condition so that the iron rusted, and then allowed to further spend overnight. […] Six containers were allotted for each condition, and the proportion of seedling establishment and the standard error were examined. It should be noted that in FIG. 19b, the horizontal axis represents the number of moles (mmol) of molybdenum that adhered per gram of dry seed. In FIG. 19b, the dots correspond to the numbers of moles of 0, 0.02, 0.05, 0.1, 0.2, 0.5, 1, and 2 mmol, starting from the left.
Six containers were allotted for each condition, and the proportion of seedling establishment and the standard error were examined. It should be noted that in FIG. 19c, the horizontal axis represents the actual weight ratios of 25 wt % calcium peroxide that adhered with respect to the weight of dry seed. In FIG. 19c, the dots correspond to the actual weight ratios of 25 wt % calcium peroxide of 0, 0.01, 0.02, 0.05, 0.1, 0.2, 0.5, and 1 time, starting from the left.

[4] = tested on: paddy rice; experiment: Seedling establishment of coated paddy seeds planted in a paddy field (Example 4-5, FIG. 22); type: in vivo; conditions: dry seeds coated with clay plus 0.1 mmol/g molybdenum; kept submerged, about one month after seeding; versus WITHOUT MATERIAL and oxygen generating agent (Cal)
Method: Dry paddy seeds (branded as Hinohikari) were prepared.
Separately, dry seeds (WITHOUT MATERIAL) coated solely with clay containing no molybdenum were also prepared. Furthermore, dry seeds (Cal) coated with an oxygen generating agent (Calper Powder 16, Hodogaya UPL Co., Ltd.) the same weight per dry seeds were also prepared. Calper Powder 16 is an oxygen generating agent composed mainly of calcium peroxide.
These dry seeds were planted in puddled soil in a paddy field in Chikugo City, Fukuoka Prefecture, by using a simultaneous puddling and planting point sowing machine. By preparing the seeds as described above and planting them by using a point sowing machine, the amount of seeding per unit area of the paddy field can be substantially uniformed. It should be noted that prior to soil puddling, 4 g/m^2 of ammonium sulfate as nitrogen and potassium sulfate containing potassium equivalent to 8 g/m^2 as potassium oxide had been applied to the paddy field. After seeding, the seeds were kept submerged without draining the water.

[5] = tested on: barley; experiment: Seedling establishment of barley seeds in humid soil (Example 6-1, FIG. 20a); type: in vivo; conditions: 0.01 mmol to 0.5 mmol molybdenum per gram of dry seed, 20° C., after two weeks
Method: (§4) As in Example 4-1, ammonium sulfate in an equivalent amount of 10 g/m^2 in terms of nitrogen and potassium chloride equivalent to 5 g/m^2 of potassium as potassium oxide were added as a solution to paddy humid soil in terms of 100 kg/m^2 of dry soil with a soil-to-liquid ratio of 0.7. The soil was placed into each container (in the shape of a cylinder approximately 7 cm in diameter) in an amount equivalent to 100 g of dry soil. The soil surface was flattened by giving it a slight press with a flat plate. Then, the soil was left at rest for one day at 4° C. […] The seeds were then half-buried in the soil. After that, at a constant temperature of 20° C., the water level was kept by adding water to such an extent that the seeds were slightly covered with water. Six containers were allotted for each condition, and the proportion of seedling establishment (proportion of individual plants that survived) was measured after two weeks. It should be noted that in each of FIGS. 20a and 20b, the horizontal axis represents the number of moles (mmol) of molybdenum that adhered per gram of dry seed. In each of FIGS. 20a and 20b, the dots correspond to the numbers of moles of 0, 0.01, 0.02, 0.05, 0.1, 0.2, and 0.5 mmol, starting from the left. […]

[6] = tested on: wheat; experiment: Seedling establishment of wheat seeds in humid soil (Example 6-1, FIG. 20b); type: in vivo; conditions: 0.01 mmol to 0.5 mmol molybdenum per gram of dry seed, 20° C., after two weeks
Method: as §4

[7] = tested on: soybean; experiment: Seedling establishment of soybean seeds submerged for two days (Example 6a-1, FIG. 20e); type: in vivo; conditions: 0.01 mmol to 0.5 mmol molybdenum per gram of dry seed, 25° C., versus untreated seeds
Method: Soil was prepared in the same manner as in Example 6-1. Next, soybean seeds (branded as Fukuyutaka) not subjected to treatment such as soaking in advance were soaked for one minute in a tenfold diluted solution of a commercially available laundry starch (manufactured by Rocket Soap Co., Ltd.; My Laundry Starch) containing approximately a little less than 10% by weight of polyvinyl alcohol. Then, the seeds were spin-dried for thirty seconds in a commercially available washing machine for removal of the extra water. […] These seeds were buried so that the upper edge of each seed was at the same height as the soil surface. In an artificially-lit (amount of light 0.4 mmol/m^2/s, lit for twelve hours per day) room at 25° C., water was added immediately after seeding so that the surface water was 15 mm high. After two days, the surface water was sucked up with a pipette for removal. Six containers were allotted for each condition, and the proportion of seedling establishment (proportion of individual plants that survived) was measured two weeks after seeding. It should be noted that in FIG. 20e, the horizontal axis represents the number of moles (mmol) of molybdenum that adhered per gram of dry seed. In FIG. 20e, the dots correspond to the numbers of moles of 0 (UNTREATED), 0.01, 0.02, 0.05, 0.1, 0.2, and 0.5 mmol, starting from the left. […]

[8] = tested on: paddy rice; experiment: Effect of sulfate ions in paddy soil on seedling establishment (Example 1-1, FIG. 1); type: in vivo
Method: The effect of concentrations of sulfate ions, which serve as a substrate for sulfide ions, in the soil solution on the percentage of seedling establishment were examined for each of the following cases: unsterilized paddy soil placed at a constant temperature of 20° C.; unsterilized paddy soil placed at a constant temperature of 30° C., unsterilized paddy soil placed in an outdoor location (at a mean temperature of 25.4° C. for the duration of examination); and sterilized paddy soil placed at a constant temperature of 20° C.
First, ammonium sulfate solutions in different concentrations were added to samples of paddy humid soil (obtained from a paddy field in Chikugo City, Fukuoka Prefecture, Japan; refrigerated in the form of humid soil until just before its use) with a soil-to-liquid ratio of 1:1.5, so that the resulting supernatant liquids above the samples of soil thus adjusted had varying concentrations of sulfate ions. The amounts of ammonium sulfate added to the samples of soil were equivalent to 0, 2, 4, 7, 10, 15, and 20 g/m^2 in terms of nitrogen, respectively, on the condition that the weight of dry soil is 100 kg/m^2. At the same time as ammonium sulfate, potassium in an amount of 5 g/m^2 in terms of potassium oxide was added as potassium chloride. Before the addition of the solutions to the samples of soil, some of the soil had been sterilized by being autoclaved for one hour at 121° C.
Each of the samples of soil thus adjusted was placed into a container (in the shape of a cylinder approximately 7 cm in diameter) in an amount equivalent to 120 g of dry soil, shaken for approximately one hour, and left at rest for two days at 4° C. On this condition, the resulting soil layer was approximately 4 cm thick and the resulting water layer above the soil surface was approximately 1 cm thick. Paddy rice seeds (branded as Hinohikari) were sterilized by being soaked in 70% ethanol for ten minutes and then in a fivefold diluted solution of sodium hypochlorite (purchased from Wako Pure Chemical Industries, Ltd.) for ten minutes. The paddy rice seeds were then slightly germinated by being soaked in water at 10° C. for five days and then in water at 30° C. for two days. The germinated unhusked rice thus obtained was used in the following testing.
Nine paddy rice seeds per container were planted at a depth of 15 mm at intervals of approximately 2 cm in each of the samples of soil thus adjusted, and the seed holes were closed by lightly shaking the sample of soil. The samples of unsterilized soil were left at rest at a constant temperature of 20° C. or 30° C., and the samples of sterilized soil were left at a constant temperature of 20° C. in incubators in which fluorescent lights were on for twelve hours per day. […]

[9] = tested on: sulfide ion generation; experiment: Blackening (ferric sulfide) of areas around paddy seeds versus sulfate ion concentration (FIG. 2); conditions: unsterilized soil, 30° C., one week after seeding, supernatant concentration
Method: In the same manner as above, ammonium sulfate was applied to samples of unsterilized soil in amounts of 0, 0.75, 1.5, and 3 mol/m^2, respectively, and the samples of unsterilized soil were placed at rest at a constant temperature of 30° C. The supernatant liquids obtained after shaking the samples of soil thus adjusted had sulfate ion concentrations shown in FIG. 2. However, since methylene blue decolorizes in a reduced state, methylene blue weighing 0.1% of dry soil was added to each sample of soil so that a reduced state of the soil could be detected. […] It should be noted that methylene blue is known to decolorize at an oxidation-reduction potential of 0.05 V or lower with a pH of approximately 6. […] Therefore, it is judged that in this experimental environment, an oxidation-reduction potential as normalized with a pH of 7 is at least temporarily 0 mV or lower.

Compound | Possibility of growth, Amount of molybdenum or tungsten added to seed [1] | Inhibition of decay, Amount of molybdenum or tungsten added to seed [2] | molybdenum amount leading to improvements in seedling establishment ([3]; dry seeds coated with mixture with reduced iron (half the weight of dry seeds), 30° C., FIG. 19b) | proportion of seedling establishment ([3]; dry seeds, mixture of 0.1 mmol/g molybdenum oxide and 25 wt % calcium peroxide at 0.1 or less time the weight of dry seed, 30° C.) | proportion of seedling establishment ([3]; mixture of 0.1 mmol/g molybdenum oxide and 25 wt % calcium peroxide at 0.2 to 0.5 time the weight of dry seed, versus absence of molybdenum oxide) | seedling establishment [4] | proportion of seedling establishment [5] | proportion of seedling establishment [6] | proportion of seedling establishment [7] | seedling establishment ([8]; sterilized soil, 20° C., regardless of sulfate ion concentration) | seedling establishment ([8]; unsterilized soil, constant 20° C., sulfate ion concentration higher than 2 mM, after 21 days) | proportion of seedling establishment ([8]; unsterilized soil, constant 30° C. or outdoor, sulfate ion concentration higher than 3 mM, after 21 days) | proportion of seedling establishment ([8]; unsterilized soil, sulfate ion concentration of 1 mM, regardless of the conditions (20° C., 30° C., outdoor), after 21 days) | sulfate ion concentration at which a blackened portion (ferric sulfide) appears around the seed [9]
[O]=[Mo](=[O])=[O] [Molybdenum oxide, Molybdenum oxide (VI)] | 0.07 mmol/g | <0.01 mmol/g | ≥ 0.5 mmol/g | ≥ 40% | higher proportion of seedling establishment | obvious improvements in seedling establishment | improvements in proportion of seedling establishment | improvements in proportion of seedling establishment | improvements in proportion of seedling establishment |  |  |  |  | 
N.N.O=S(=O)(O)O [sulfate ions, ammonium sulfate] |  |  |  |  |  |  |  |  |  | no decrease in seedling establishment | substantially no seedling establishment | ≤ 10% | drastic decreases in proportion of seedling establishment | ≥ 0.91 mM
